# Measurements: patent US3985779A, “M-phenoxyphenyl propionic acid derivatives and preparation thereof” (Eisai Co., Ltd., priority 1973, dated 1976)
# “Also recorded” adds a separate entry of the source. Like-named read-outs stand apart in the source and are kept apart here.
# Tests used:
# in vivo = details: mouse, po
# Method: Comparison of toxicity of the phenyl propionic acid derivatives of the present invention and that of the other known anti-inflammatory agents was carried out in mice.
# Dextran-induced edema = assay: Inhibitory activity on dextran-induced edema in rats (Experiment C); type: in vivo
# Method: Inhibitory activity on dextran-induced edema in rats Experiment was carried out in the manner same as those of the preceding Experiments in which dextran was employed as irritant substance.
# ARRS-induced edema = assay: Inhibitory activity on anti-rat-rabbit serum (ARRS)-induced edema in rats (Experiment D); type: in vivo
# Method: Inhibitory activity on anti-rat-rabbit serum (ARRS)-induced edema in rats Similar Experiments was carried out by using ARRS as irritant substance.
# [1] = test system: Carrageenin-induced edema; assay: Inhibitory activity on Carrageenin-induced Edema in rats (Experiment A); type: in vivo, rats (male Wistar); details: 3 hours after Carrageenin
# Method: Inhibitory activity on Carrageenin-induced Edema in rats
# Carrageenin was used as the agent for inducing edema and 5 male rats of Wistar strain having body weight of about 150 grs. after fasting for 16-17 hours were used as test animals. The inhibitory activity of the test compounds were determined with the paw edema method in accordance with Winter C. A. et al; Proc. Soc. Exp. Biol. Med. 111, 544 (1962).
# The compounds were suspended in an aqueous solution of gum arabic and the same were orally administered to the rats at 1 hour before the injection of Carrageenin.
# The observation was effected by measuring, after 3 hours the administration of the Carrageenin, the enlarged volumes of hind paw of the rats.
# [2] = test system: granuloma induced by Formalin Filter paper Pellet; details: for Adrenal / Granuloma-Wet-Weight ± S.E. / Thymus: 6 days
# Kaolin-induced edema = assay: Inhibitory activity on Kaolin-induced Edema in Rats (Experiment B); type: in vivo
# [3] = test system: Adjuvant-induced arthritis; assay: Inhibitory activity on Adjuvant arthritis in rats (Experiment E); type: in vivo
# Description: The inflammatory score and the volumes of the right and left paws of the rats were observed.
# yeast-induced pyrexia = assay: Antipyretic activity to the yeast-treated rats (Experiment I); type: in vivo, rats (Wistar strain male); details: for minimal effective dose: Rattus norvegicus, po
# Method: To Wistar strain male rats having about 300 - 350 grs. body weight, an aqueous suspension of yeast was subcutaneously injected to induce pyrexia.
# At the lapse of 4 hours since the dose of the yeast suspension, the compounds under test given in hereinaftermentioned Table 10 in a form of suspension in a 5% gum arabic aqueous solution are orally administered. The rectal temperatures of the rats were measured periodically by means of a thermister-type thermometer sold by Japan Koden K.K. As control, said 5% gum arabic aqueous solution alone was administered.
# stomachs of the rats = type: in vivo; details: 50 mg/kg oral; score 0 (nothing unusual) to 10 (considerable irritability with bleeding)
# Description: Observation of gastric irritability
# Gastric irritability due to oral administration of the compounds as edema inhibitory agent was studied by macroscopical observation of the dissected stomachs of the rats which had been employed for determination of the edema inhibitions mentioned in the preceding paragraphs. The degrees of the irritability observed were scored in the 0 to 10 ratings depending upon the extent of errosions and bleedings of the stomachs, wherein the rating of 0(zero) means "nothing unusual", the rating of 10 means a state of considerable gastric irritability with bleeding and the remainders mean the intermediate degree of gastric irritability.
# writhing syndrome = assay: Analgesic activity: antagonism to acetic acid writhing syndrome in mice (Experiment J); type: in vivo, mice (dd strain male)
# Method: Analgesic activity of the compound of the present invention in comparison with the known compounds.
# Analgesic activity of the compound was tested as the measure of antagonism to writhing syndrome appeared when 0.1 ml/10g of 0.7% acetic acid was intraperitoneally injected to the dd strain male mice having 17 - 20 grs. body weight which had been abstinence from food for 18 hours.
# The compounds under test were orally administered in a form of suspension in a 5% aqueous solution of gum arabic. After one hour from the administration, the onset times required for the writhing syndrome were scored.
# In another Experiment in the combined use of the compounds under test and Codeine phosphate, 10 - 20 mg/kg of Codeine phosphate were orally administered immediatly after the oral administration of the compounds under test.
# [4] = daily oral 40 mg/kg for 9 days, final
smiles,measurement,setting,value
"CC(C(=O)O)c1cccc(Oc2ccccc2Cl)c1 (stereo not drawn) [Compound (5), 2-[m-(o-chlorophenoxy)phenyl]propionic acid]",LD50,in vivo,1120 mg/kg
same,% of Inhibition,"Dextran-induced edema; after 2 hrs, oral 8 mg/kg",1%
same,Edema D. ± S.E.,"Dextran-induced edema; after 2 hrs, oral 8 mg/kg",.830 ± .052
same,% of Inhibition,"Dextran-induced edema; after 2 hrs, oral 40 mg/kg",11%
same,Edema D. ± S.E.,"Dextran-induced edema; after 2 hrs, oral 40 mg/kg",.742 ± .037
same,% of Inhibition,"Dextran-induced edema; after 3 hrs, oral 8 mg/kg",1%
same,Edema D. ± S.E.,"Dextran-induced edema; after 3 hrs, oral 8 mg/kg",.746 ± .026
same,% of Inhibition,"Dextran-induced edema; after 3 hrs, oral 40 mg/kg",8%
same,Edema D. ± S.E.,"Dextran-induced edema; after 3 hrs, oral 40 mg/kg",.689 ± .035
same,Edema D. ± S.E.,"ARRS-induced edema; after 2 hrs, oral 8 mg/kg",.631 ± 7040
same,% of Inhibition,"ARRS-induced edema; after 2 hrs, oral 40 mg/kg",10%
same,Edema D. ± S.E.,"ARRS-induced edema; after 2 hrs, oral 40 mg/kg",.610 ± .067
same,% of Inhibition,"ARRS-induced edema; after 3 hrs, oral 8 mg/kg",11%
same,Edema D. ± S.E.,"ARRS-induced edema; after 3 hrs, oral 8 mg/kg",.637 ± .074
same,% of Inhibition,"ARRS-induced edema; after 3 hrs, oral 40 mg/kg",19%
same,Edema D. ± S.E.,"ARRS-induced edema; after 3 hrs, oral 40 mg/kg",.575 ± .074
same,% of Inhibition,[1]; oral 8.0 mg/kg,43%
same,Edema density ± S.E.,[1]; oral 8.0 mg/kg,.305 ± .044
same,% of Inhibition,[1]; oral 40.0 mg/kg,53%
same,Edema density ± S.E.,[1]; oral 40.0 mg/kg,.250 ± .049
same,Adrenal,[2]; daily oral 8 mg/kg,44.6 mg
same,Granuloma-Wet-Weight ± S.E.,[2]; daily oral 8 mg/kg,68 ± 4
same,Thymus,[2]; daily oral 8 mg/kg,545 mg
same,Adrenal,[2]; daily oral 40 mg/kg,43.8 mg
same,Granuloma-Wet-Weight ± S.E.,[2]; daily oral 40 mg/kg,89 ± 4
same,Thymus,[2]; daily oral 40 mg/kg,522 mg
same,inhibitory activity on granuloma (in words),[2]; oral 8 and 40 mg/kg/day for successive 6 days,significant effect as compared with the control
same,% of Inhibition,"Kaolin-induced edema; after 3 hrs, oral 8 mg/kg",20%
same,Edema D. ± S.E.,"Kaolin-induced edema; after 3 hrs, oral 8 mg/kg",.334 ± .069
same,% of Inhibition,"Kaolin-induced edema; after 3 hrs, oral 40 mg/kg",52%
same,Edema D. ± S.E.,"Kaolin-induced edema; after 3 hrs, oral 40 mg/kg",.201 ± .021
same,% of Inhibition,"Kaolin-induced edema; after 5 hrs, oral 8 mg/kg",21%
same,Edema D. ± S.E.,"Kaolin-induced edema; after 5 hrs, oral 8 mg/kg",.442 ± .045
same,% of Inhibition,"Kaolin-induced edema; after 5 hrs, oral 40 mg/kg",57%
same,Edema D. ± S.E.,"Kaolin-induced edema; after 5 hrs, oral 40 mg/kg",.245 ± .017
same,% of Inhibition,"Kaolin-induced edema; after 7 hrs, oral 8 mg/kg",7%
same,Edema D. ± S.E.,"Kaolin-induced edema; after 7 hrs, oral 8 mg/kg",.563 ± .060
same,% of Inhibition,"Kaolin-induced edema; after 7 hrs, oral 40 mg/kg",51%
same,Edema D. ± S.E.,"Kaolin-induced edema; after 7 hrs, oral 40 mg/kg",.294 ± .035
same,"Final Paw Volume, left paw",[3]; [4],45
same,"Final Paw Volume, right paw",[3]; [4],66
same,"Final Score, Mean, left paw",[3]; [4],1.8
same,"Final Score, Mean, right paw",[3]; [4],3.2
same,"Final Score, Total, left paw",[3]; [4],9
same,"Final Score, Total, right paw",[3]; [4],16
same,"Initial Paw Volume, left paw","[3]; daily oral 40 mg/kg, initial",39
same,"Initial Paw Volume, right paw","[3]; daily oral 40 mg/kg, initial",73
same,"Initial Score, Mean, left paw","[3]; daily oral 40 mg/kg, initial",1.8
same,"Initial Score, Mean, right paw","[3]; daily oral 40 mg/kg, initial",3.6
same,"Initial Score, Total, left paw","[3]; daily oral 40 mg/kg, initial",9
same,"Initial Score, Total, right paw","[3]; daily oral 40 mg/kg, initial",18
same,inhibitory activity on Adjuvant arthritis (in words),"[3]; score and paw volume, 40 mg/kg daily for 9 days",significant inhibitory activity in score and paw volume
same,body temperature relative to normal (in words),yeast-induced pyrexia; 80 and 160 mg/kg p.o.,no body temperatures lower than the normal body temperatures
same,"Change in rectal temperature, mean ± S.E.","yeast-induced pyrexia; 1 hr, 1.25 mg/kg p.o.",+0.25 ± 0.09
same,"Change in rectal temperature, mean ± S.E.","yeast-induced pyrexia; 1 hr, 5 mg/kg p.o.",-0.15 ± 0.13
same,"Change in rectal temperature, mean ± S.E.","yeast-induced pyrexia; 1 hr, 20 mg/kg p.o.",-0.53 ± 0.10
same,"Change in rectal temperature, mean ± S.E.","yeast-induced pyrexia; 1 hr, 80 mg/kg p.o.",-0.55 ± 0.13
same,"Change in rectal temperature, mean ± S.E.","yeast-induced pyrexia; 1 hr, 160 mg/kg p.o.",-0.48 ± 0.14
same,"Change in rectal temperature, mean ± S.E.","yeast-induced pyrexia; 3 hrs, 1.25 mg/kg p.o.",+0.03 ± 0.21
same,"Change in rectal temperature, mean ± S.E.","yeast-induced pyrexia; 3 hrs, 5 mg/kg p.o.",-0.30 ± 0.17
same,"Change in rectal temperature, mean ± S.E.","yeast-induced pyrexia; 3 hrs, 20 mg/kg p.o.",-0.90 ± 0.10
same,"Change in rectal temperature, mean ± S.E.","yeast-induced pyrexia; 3 hrs, 80 mg/kg p.o.",-0.83 ± 0.09
same,"Change in rectal temperature, mean ± S.E.","yeast-induced pyrexia; 3 hrs, 160 mg/kg p.o.",-0.90 ± 0.17
same,"Change in rectal temperature, mean ± S.E.","yeast-induced pyrexia; 5 hrs, 1.25 mg/kg p.o.",+0.13 ± 0.15
same,"Change in rectal temperature, mean ± S.E.","yeast-induced pyrexia; 5 hrs, 5 mg/kg p.o.",-0.25 ± 0.16
same,"Change in rectal temperature, mean ± S.E.","yeast-induced pyrexia; 5 hrs, 20 mg/kg p.o.",-0.70 ± 0.27
same,"Change in rectal temperature, mean ± S.E.","yeast-induced pyrexia; 5 hrs, 80 mg/kg p.o.",-0.65 ± 0.16
same,"Change in rectal temperature, mean ± S.E.","yeast-induced pyrexia; 5 hrs, 160 mg/kg p.o.",-1.03 ± 0.19
same,minimal effective dose,"yeast-induced pyrexia; 1 h, p.o., compound (5): at one hour lapse, read-out: dose with significant antipyretic activity",5 mg/kg
same,minimal effective dose,yeast-induced pyrexia; read-out: dose with tendency of an antipyretic activity,1.25 mg/kg
same,dose with maximum antipyretic activity,yeast-induced pyrexia; p.o.,20 mg/kg
same,Degree of gastric irritability,stomachs of the rats,2
same,"Onset time of writhing syndrome, mean ± S.E.",writhing syndrome; 10 mg/kg p.o. combined with Codeine Phosphate 10 mg/kg,6.7 ± 1.3 min
same,"Onset time of writhing syndrome, mean ± S.E.",writhing syndrome; 10 mg/kg p.o. combined with Codeine Phosphate 20 mg/kg,6.9 ± 0.7 min
same,"Onset time of writhing syndrome, mean ± S.E.",writhing syndrome; 20 mg/kg p.o. combined with Codeine Phosphate 10 mg/kg,6.9 ± 1.3 min
same,"Onset time of writhing syndrome, mean ± S.E.",writhing syndrome; 20 mg/kg p.o. combined with Codeine Phosphate 20 mg/kg,8.6 ± 0.6 min
same,"Onset time of writhing syndrome, mean ± S.E.",writhing syndrome; 40 mg/kg p.o. combined with Codeine Phosphate 10 mg/kg,7.1 ± 1.2 min
same,"Onset time of writhing syndrome, mean ± S.E.",writhing syndrome; 40 mg/kg p.o. combined with Codeine Phosphate 20 mg/kg,13.7 ± 1.2 min
same,"Onset time of writhing syndrome, mean ± S.E.",writhing syndrome; 80 mg/kg p.o. combined with Codeine Phosphate 10 mg/kg,10.5 ± 1.2 min
same,"Onset time of writhing syndrome, mean ± S.E.",writhing syndrome; 80 mg/kg p.o. combined with Codeine Phosphate 20 mg/kg,14.2 ± 0.8 min
same,analgesic activity in combination with Codeine (in words),writhing syndrome; 10 - 80 mg/kg p.o. with Codeine phosphate 10 and 20 mg/kg p.o.,"almost equivalent to those of Fenoprofen and Ibuprofen, and far stronger than that of Aspirin; also recorded: comparable to that of Fenoprofen and slightly stronger than that presented by Ibuprofen"
same,minimal effective dose,"writhing syndrome; Mus musculus, 1 h, single oral administration, read-out: dose with significant antagonism / retardation of writhing syndrome",> 20 mg/kg
same,analgesic activity (in words),"writhing syndrome; mouse, in vivo",high analgesic activity
same,"Onset time of writhing syndrome, mean ± S.E.","writhing syndrome; test compound alone, 10 mg/kg p.o.",5.2 ± 1.2 min
same,"Onset time of writhing syndrome, mean ± S.E.","writhing syndrome; test compound alone, 20 mg/kg p.o.",6.6 ± 1.6 min
same,"Onset time of writhing syndrome, mean ± S.E.","writhing syndrome; test compound alone, 40 mg/kg p.o.",5.8 ± 0.4 min
same,"Onset time of writhing syndrome, mean ± S.E.","writhing syndrome; test compound alone, 80 mg/kg p.o.",7.8 ± 1.7 min
